{"source": "BindingDB's records for PubMed 35063731", "about": "(Chinese Academy of Sciences, 2022)", "key": {"Maltase-glucoamylase [1]": {"target": "T1, Maltase-glucoamylase (Homo sapiens, UniProt O43451)", "T1 sequence (O43451 whole entry)": "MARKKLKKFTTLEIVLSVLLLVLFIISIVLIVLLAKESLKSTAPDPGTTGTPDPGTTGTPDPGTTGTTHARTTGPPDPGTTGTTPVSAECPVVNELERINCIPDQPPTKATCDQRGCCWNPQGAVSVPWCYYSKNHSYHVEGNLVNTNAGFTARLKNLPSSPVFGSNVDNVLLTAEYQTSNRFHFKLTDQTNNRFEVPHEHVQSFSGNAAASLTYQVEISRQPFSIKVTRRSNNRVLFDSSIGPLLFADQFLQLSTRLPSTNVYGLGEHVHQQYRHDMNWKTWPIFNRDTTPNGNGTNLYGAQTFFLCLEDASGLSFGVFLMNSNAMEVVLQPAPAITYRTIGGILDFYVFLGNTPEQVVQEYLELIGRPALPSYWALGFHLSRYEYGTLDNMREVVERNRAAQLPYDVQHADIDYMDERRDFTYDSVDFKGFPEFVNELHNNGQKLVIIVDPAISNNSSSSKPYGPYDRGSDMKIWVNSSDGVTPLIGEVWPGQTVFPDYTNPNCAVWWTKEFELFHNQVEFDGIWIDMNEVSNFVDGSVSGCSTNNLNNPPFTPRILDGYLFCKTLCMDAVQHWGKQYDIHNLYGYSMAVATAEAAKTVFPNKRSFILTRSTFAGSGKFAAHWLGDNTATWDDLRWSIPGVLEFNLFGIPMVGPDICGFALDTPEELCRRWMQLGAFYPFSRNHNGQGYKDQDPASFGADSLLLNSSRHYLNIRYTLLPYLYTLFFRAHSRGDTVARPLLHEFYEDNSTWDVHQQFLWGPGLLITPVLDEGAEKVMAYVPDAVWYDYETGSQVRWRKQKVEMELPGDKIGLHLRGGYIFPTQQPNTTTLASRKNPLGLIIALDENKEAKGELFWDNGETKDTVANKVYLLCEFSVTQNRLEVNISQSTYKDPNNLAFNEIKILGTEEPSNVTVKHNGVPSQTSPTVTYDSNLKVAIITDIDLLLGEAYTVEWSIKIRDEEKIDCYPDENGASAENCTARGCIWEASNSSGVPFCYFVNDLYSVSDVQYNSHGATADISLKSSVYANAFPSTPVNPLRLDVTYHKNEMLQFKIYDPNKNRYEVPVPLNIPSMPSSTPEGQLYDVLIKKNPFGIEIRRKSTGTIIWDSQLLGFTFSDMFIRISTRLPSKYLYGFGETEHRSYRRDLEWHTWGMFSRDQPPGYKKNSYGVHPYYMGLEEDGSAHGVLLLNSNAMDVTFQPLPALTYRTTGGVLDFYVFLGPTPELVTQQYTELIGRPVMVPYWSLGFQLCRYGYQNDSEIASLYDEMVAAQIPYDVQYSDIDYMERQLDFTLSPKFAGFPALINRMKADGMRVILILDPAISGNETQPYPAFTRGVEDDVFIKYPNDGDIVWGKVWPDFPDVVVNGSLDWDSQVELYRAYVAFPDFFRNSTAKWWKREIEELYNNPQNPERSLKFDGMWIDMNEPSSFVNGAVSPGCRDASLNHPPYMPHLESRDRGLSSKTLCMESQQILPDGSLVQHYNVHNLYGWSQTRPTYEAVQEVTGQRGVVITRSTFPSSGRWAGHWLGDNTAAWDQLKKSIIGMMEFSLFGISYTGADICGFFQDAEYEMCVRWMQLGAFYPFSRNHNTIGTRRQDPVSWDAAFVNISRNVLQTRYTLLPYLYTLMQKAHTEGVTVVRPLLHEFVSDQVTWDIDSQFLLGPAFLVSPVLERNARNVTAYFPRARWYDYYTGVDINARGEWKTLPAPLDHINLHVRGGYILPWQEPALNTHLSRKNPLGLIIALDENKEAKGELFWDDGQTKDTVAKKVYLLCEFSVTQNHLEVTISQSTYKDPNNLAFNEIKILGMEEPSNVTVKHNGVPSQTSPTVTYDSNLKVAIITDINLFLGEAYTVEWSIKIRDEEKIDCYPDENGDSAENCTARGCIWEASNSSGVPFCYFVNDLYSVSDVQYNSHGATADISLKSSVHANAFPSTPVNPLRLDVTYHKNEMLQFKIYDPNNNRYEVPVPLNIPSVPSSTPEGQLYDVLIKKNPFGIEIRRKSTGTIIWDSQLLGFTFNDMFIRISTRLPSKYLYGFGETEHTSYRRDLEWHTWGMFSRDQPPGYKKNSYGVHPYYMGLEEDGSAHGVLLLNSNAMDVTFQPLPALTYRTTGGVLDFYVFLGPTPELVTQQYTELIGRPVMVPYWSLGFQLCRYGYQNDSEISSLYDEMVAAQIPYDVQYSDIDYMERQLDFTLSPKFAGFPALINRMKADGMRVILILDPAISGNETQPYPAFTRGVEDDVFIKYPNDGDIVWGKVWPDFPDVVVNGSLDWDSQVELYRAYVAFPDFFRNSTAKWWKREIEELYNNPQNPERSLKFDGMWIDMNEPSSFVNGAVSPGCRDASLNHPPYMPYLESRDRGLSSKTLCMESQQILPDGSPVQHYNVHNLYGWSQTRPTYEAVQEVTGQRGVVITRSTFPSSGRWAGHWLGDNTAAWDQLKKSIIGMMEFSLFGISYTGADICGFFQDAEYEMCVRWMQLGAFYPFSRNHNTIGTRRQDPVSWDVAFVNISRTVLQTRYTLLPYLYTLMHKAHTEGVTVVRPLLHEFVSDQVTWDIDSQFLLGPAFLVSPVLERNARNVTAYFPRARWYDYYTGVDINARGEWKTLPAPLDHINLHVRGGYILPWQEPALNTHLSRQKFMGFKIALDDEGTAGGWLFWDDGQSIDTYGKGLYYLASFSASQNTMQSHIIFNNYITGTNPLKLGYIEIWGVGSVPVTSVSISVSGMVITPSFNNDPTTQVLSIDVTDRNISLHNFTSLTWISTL", "assay": "Inhibition of alpha-glucosidase (unknown origin)"}, "Maltase-glucoamylase [2]": {"target": "T1, Maltase-glucoamylase", "assay": "Inhibition of alpha-Glucosidase (unknown origin) using pNPG as substrate incubated for 20 mins by micro plate reader analysis"}, "[3]": {"assay": "Inhibition of influenza A virus Neuraminidase using 2-(4-methylumbelliferyl)-a-D-acetylneuraminic acid as substrate incubated for 30 mins by fluorescence based analysis"}}}
{"smiles": "CC(C)=CCc1cc(C[C@@]2(C(=O)O)OC(=O)C(OC(C)(C)[C@@H](O)Cc3cc(C[C@@]4(C(=O)O)OC(=O)C(O)=C4c4ccc(O)cc4)ccc3O)=C2c2ccc(O)cc2)ccc1O", "values": [{"measurement": "IC50", "setting": "Maltase-glucoamylase [1]", "result": 10.5, "unit": "µM"}]}
{"smiles": "COc1cc2c(c(O)c1CO)C(=O)OC[C@@H]2O", "values": [{"measurement": "IC50", "setting": "Maltase-glucoamylase [2]", "result": 1410, "unit": "µM"}]}
{"smiles": "COC(=O)[C@@]1(C(=O)C(C)=O)C(C)=C(C)C=C2[C@]3(C=O)CC[C@H](OC(C)=O)C(C)(C)[C@H]3CC[C@@]21C", "values": [{"measurement": "IC50", "setting": "[3]", "result": 0.0081, "unit": "µM"}]}
